Data from ChEMBL document CHEMBL4428063, “Novel Pyrimidine Toll-like Receptor 7 and 8 Dual Agonists to Treat Hepatitis B Virus” (J Med Chem, 2016).
The source made the active and inactive calls. The rule behind the calls is not given here.

Experiments:
[1] = target: T1, Toll-like receptor 7 (Homo sapiens) (UniProt Q9NYK1); assay: Agonist activity at human TLR7 expressed in HEK293 cells measured after 6 hrs by NF-kappaB luciferase reporter gene assay; format: cell-based
T1 sequence (whole entry): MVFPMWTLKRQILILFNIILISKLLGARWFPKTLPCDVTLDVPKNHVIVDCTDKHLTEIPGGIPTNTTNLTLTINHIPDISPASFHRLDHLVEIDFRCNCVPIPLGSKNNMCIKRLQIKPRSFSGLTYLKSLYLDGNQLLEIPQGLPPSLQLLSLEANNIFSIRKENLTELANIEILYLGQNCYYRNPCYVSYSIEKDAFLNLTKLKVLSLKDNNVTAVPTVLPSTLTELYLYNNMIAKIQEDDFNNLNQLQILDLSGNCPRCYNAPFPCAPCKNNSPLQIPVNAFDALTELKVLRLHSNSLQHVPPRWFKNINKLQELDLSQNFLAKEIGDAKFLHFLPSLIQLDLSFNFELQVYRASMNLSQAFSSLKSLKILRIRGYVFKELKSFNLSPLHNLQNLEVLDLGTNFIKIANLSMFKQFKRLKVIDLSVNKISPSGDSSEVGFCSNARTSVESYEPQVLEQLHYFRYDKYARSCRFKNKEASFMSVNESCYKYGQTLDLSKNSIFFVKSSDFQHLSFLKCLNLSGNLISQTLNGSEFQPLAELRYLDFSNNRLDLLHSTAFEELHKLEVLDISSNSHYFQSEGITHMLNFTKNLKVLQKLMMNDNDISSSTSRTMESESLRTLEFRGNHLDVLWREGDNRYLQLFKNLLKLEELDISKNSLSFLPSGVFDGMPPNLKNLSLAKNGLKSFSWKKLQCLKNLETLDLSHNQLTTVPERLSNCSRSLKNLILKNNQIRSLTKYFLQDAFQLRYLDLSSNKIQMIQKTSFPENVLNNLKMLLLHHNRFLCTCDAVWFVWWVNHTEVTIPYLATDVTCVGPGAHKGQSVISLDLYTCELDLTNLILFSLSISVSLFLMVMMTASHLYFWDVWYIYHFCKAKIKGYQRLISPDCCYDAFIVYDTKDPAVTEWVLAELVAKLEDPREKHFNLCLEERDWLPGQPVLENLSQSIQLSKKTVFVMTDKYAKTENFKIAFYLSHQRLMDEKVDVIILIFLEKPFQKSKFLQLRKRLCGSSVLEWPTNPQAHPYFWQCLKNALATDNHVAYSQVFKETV

[2] = target: T2, Toll-like receptor 9 (Homo sapiens) (UniProt Q9NR96); assay: Agonist activity at wild-type human TLR9 expressed in HEK293 cells up to 25 uM measured after 6 hrs by NF-kappaB luciferase reporter gene assay; format: cell-based
T2 sequence (whole entry): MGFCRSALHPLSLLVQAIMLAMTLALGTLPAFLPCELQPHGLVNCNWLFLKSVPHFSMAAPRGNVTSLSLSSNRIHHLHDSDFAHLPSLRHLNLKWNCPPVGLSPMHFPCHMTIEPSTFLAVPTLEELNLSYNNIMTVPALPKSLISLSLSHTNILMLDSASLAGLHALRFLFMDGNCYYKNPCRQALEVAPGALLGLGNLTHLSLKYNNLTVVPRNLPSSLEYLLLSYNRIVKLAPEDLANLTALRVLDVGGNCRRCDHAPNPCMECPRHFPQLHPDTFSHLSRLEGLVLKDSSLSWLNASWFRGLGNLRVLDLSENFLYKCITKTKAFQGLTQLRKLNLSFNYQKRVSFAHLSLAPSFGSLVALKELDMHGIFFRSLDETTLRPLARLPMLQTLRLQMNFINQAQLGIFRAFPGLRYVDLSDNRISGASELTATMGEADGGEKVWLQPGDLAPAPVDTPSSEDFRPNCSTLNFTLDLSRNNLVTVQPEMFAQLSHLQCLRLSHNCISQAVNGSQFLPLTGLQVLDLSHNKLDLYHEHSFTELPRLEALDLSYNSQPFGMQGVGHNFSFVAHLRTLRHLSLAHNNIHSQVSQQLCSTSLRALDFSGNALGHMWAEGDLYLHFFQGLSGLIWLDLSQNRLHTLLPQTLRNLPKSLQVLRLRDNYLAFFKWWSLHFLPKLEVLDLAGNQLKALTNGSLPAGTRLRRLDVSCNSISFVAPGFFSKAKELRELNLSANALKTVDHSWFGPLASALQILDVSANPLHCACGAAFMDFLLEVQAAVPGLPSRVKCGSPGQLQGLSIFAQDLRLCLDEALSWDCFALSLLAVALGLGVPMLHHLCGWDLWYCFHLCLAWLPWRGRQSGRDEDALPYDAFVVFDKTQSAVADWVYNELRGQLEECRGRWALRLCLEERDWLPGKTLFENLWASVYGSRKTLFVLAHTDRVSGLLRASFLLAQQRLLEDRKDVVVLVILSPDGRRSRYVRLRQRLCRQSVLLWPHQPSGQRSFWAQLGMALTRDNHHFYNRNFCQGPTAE

[3] = Intrinsic clearance in Sprague-Dawley rat liver microsomes assessed per mg protein at 1 uM measured after 60 mins; format: ADME, Microsome; conditions: read-out: CLH
[4] = Intrinsic clearance in dog liver microsomes assessed per mg protein at 1 uM measured after 60 mins; format: ADME, Canis lupus familiaris, Microsome; conditions: read-out: CLH
[5] = test system: human MDR1; assay: Apparent permeability across apical to basolateral side in MDCK cells expressing human MDR1 at 1 uM by LC-MS/MS analysis; format: ADME, cell-based, Canis lupus familiaris; conditions: dog

For `CCCC[C@@H](CCO)Nc1nc(N)ncc1OC`, the LED [1] was 1.6 µM, the Activity [2] was “inactive” and the microsomal CLint at 1 µM [3] was 60 µL/min/mg. It also gave a microsomal CLint at 1 µM [4] of 7 µL/min/mg and a Papp A→B at 1 µM [5] of 23 ×10⁻⁶ cm/s.
